Test results taken from US7645781B2, “N-aryl-2-oxazolidinone-5-carboxamides and their derivatives” (Pfizer Inc, priority 2002, dated 2010).
Converted amounts (≈) assume the structure as drawn. Read-outs that look alike come from different tables or passages of the source.

Assays:
[1] = test system: Staphylococcus aureus (SAUR 9213); assay: MIC by standard agar dilution method; type: cell-based; details: Mueller Hinton agar, incubated overnight at 35° C.
Source text: The antibacterial agents of this invention have useful activity against a variety of organisms. The in vitro activity of compounds of this invention can be assessed by standard testing procedures such as the determination of minimum inhibitory concentration (MIC) by agar dilution as described in “Approved Standard. Methods for Dilution Antimicrobial Susceptibility Tests for Bacteria That Grow Aerobically”, 3rd. ed., published 1993 by the National Committee for Clinical Laboratory Standards, Villanova, Pa., USA. The in vitro MICs of test compounds are determined by a standard agar dilution method. A stock drug solution of each analog is prepared in the preferred solvent, usually DMSO:H2O (1:3). Serial 2-fold dilutions of each sample are made using 1.0 ml aliquots of sterile distilled water. To each 1.0 ml aliquot of drug is added 9 ml of molten Mueller Hinton agar medium. The drug-supplemented agar is mixed, poured into 15×100 mm petri dishes, and allowed to solidify and dry prior to inoculation. Vials of each of the test organisms are maintained frozen in the vapor phase of a liquid nitrogen freezer. Test cultures are grown overnight at 35° C. on the medium appropriate for the organism. Colonies are harvested with a sterile swab, and cell suspensions are prepared in Trypticase Soy broth (TSB) to equal the turbidity of a 0.5 McFarland standard. A 1:20 dilution of each suspension is made in TSB. The plates containing the drug supplemented agar are inoculated with a 0.001 ml drop of the cell suspension using a Steers replicator, yielding approximately 10^4 to 10^5 cells per spot. The plates are incubated overnight at 35° C. Following incubation the Minimum Inhibitory Concentration (MIC μg/ml), the lowest concentration of drug that inhibits visible growth of the organism, is read and recorded.

Row | melting point | MIC ([1]; read-out: MIC) | MIC [1] | Compound
1 | 182.5 to 184 °C | 4 µg/mL (≈ 13.1 µM) | – | CC(C)n1c(=O)oc2cc(N3C[C@H](C(N)=O)OC3=O)ccc21 [Example 40, (5R)-(−)-3-(2,3-Dihydro-3-isopropyl-2-oxo-6-benzoxazolyl)-2-oxo-5-oxazolidinecarboxamide]
2 | 217 to 219 °C | 8 µg/mL (≈ 23.7 µM) | – | Cn1c(=O)sc2cc(N3C[C@H](C(=O)NCCO)OC3=O)ccc21 [Example 34, (5R)-(−)-N-(2-Hydroxyethyl)-3-(2,3-dihydro-3-methyl-2-oxo-6-benzothiazolyl)-2-oxo-5-oxazolidinecarboxamide]
3 | 172 to 173.5 °C | 2 µg/mL (≈ 5.96 µM) | – | CNC(=O)[C@H]1CN(c2ccc3c(c2)sc(=O)n3C(C)C)C(=O)O1 [Example 37, (5R)-(−)-N-Methyl-3-(2,3-dihydro-3-isopropyl-2-oxo-6-benzothiazolyl)-2-oxo-5-oxazolidinecarboxamide]
4 | 198 to 200 °C | 2 µg/mL (≈ 6.26 µM) | – | C[C@@H]1Cc2cc(N3C[C@H](C(N)=O)OC3=O)ccc2N1C(=O)CO [Example 50, (5R)-3-[(2R)-2,3-Dihydro-1-(hydroxyacetyl)-2-methyl-1H-indol-5-yl]-2-oxo-5-oxazolidinecarboxamide]
5 | 260 to 262 °C | 1 µg/mL (≈ 3.25 µM) | – | CN1C(=O)CCc2cc(N3C[C@H](C(N)=O)OC3=O)cc(F)c21 [Example 82, (5R)-3-(8-Fluoro-1-methyl-2-oxo-1,2,3,4-tetrahydroquinolin-6-yl)-2-oxo-5-oxazolidinecarboxamide]
6 | 243 to 246 °C | 4 µg/mL (≈ 10.3 µM) | – | CNC(=O)[C@H]1CN(c2cc(F)c(N3CCS(=O)(=O)CC3)c(F)c2)C(=O)O1 [Example 44, (5R)-(−)-N-Methyl-3-[3,5-difluoro-4-(thiomorpholin-4-yl)phenyl]-2-oxo-5-oxazolidinecarboxamide S,S-dioxide]
7 | 275 °C (dec.) | 1 µg/mL (≈ 2.81 µM) | – | CNC(=O)[C@H]1CN(c2ccc(N3Cc4cccnc4C3)c(F)c2)C(=O)O1 [Example 55, (5R)-N-Methyl-3-[4-(5,7-dihydro-6H-pyrrolo[3,4-b]pyridin-6-yl)-3-fluorophenyl]-2-oxo-5-oxazolidinecarboxamide]
8 | > 260 °C | 1 µg/mL (≈ 3.61 µM) | – | Cn1c(=O)oc2cc(N3C[C@H](C(N)=O)OC3=O)ccc21 [Example 38, (5R)-(−)-3-(2,3-dihydro-3-methyl-2-oxo-6-benzoxazolyl)-2-oxo-5-oxazolidinecarboxamide]
9 | 211 to 212.5 °C | 1 µg/mL (≈ 3.25 µM) | – | CCn1c(=O)sc2cc(N3C[C@H](C(N)=O)OC3=O)ccc21 [Example 30, (5R)-(−)-3-(2,3-Dihydro-3-ethyl-2-oxo-6-benzothiazolyl)-2-oxo-5-oxazolidinecarboxamide]
10 | 283 to 285 °C (dec.) | 8 µg/mL (≈ 22.3 µM) | – | NC(=O)[C@H]1CN(c2cc(F)c([C@H]3CC[S@@+]([O-])CC3)c(F)c2)C(=O)O1 [Example 46, (5R)-(−)-3-[3,5-Difluoro-4-(cis-tetrahydro-1-oxido-2H-thiopyran-4-yl)phenyl]-2-oxo-5-oxazolidinecarboxamide]
11 | – | 8 µg/mL (≈ 21.9 µM) | – | CCNC(=O)[C@H]1CN(c2cc(F)c(N3C=CC(=O)CC3)c(F)c2)C(=O)O1 [Example 78, (5R)-N-Ethyl-3-[4-(4-oxo-3,4-dihydro-1(2H)-pyridinyl)-3,5-difluorophenyl]-2-oxo-5-oxazolidinecarboxamide]
12 | – | – | 4 µg/mL (≈ 11.3 µM) | N=S1(=O)CCC(c2ccc(N3C[C@H](C(N)=O)OC3=O)cc2F)CC1 (stereo in doubt) [Example 56, (5R)-3-[4-(cis-1-Imino-1-oxido-1,1,3,4,5,6-hexahydro-2H-thiopyran-4-yl)-3-fluorophenyl]-2-oxo-5-oxazolidinecarboxamide]
13 | – | 2 µg/mL (≈ 6.87 µM) | – | CN1C(=O)COc2cc(N3C[C@H](C(N)=O)OC3=O)ccc21 [Example 59, (5R)-3-(3,4-Dihydro-4-methyl-3-oxo-2H-1,4-benzoxazin-7-yl) -2-oxo-5-oxazolidinecarboxamide]
14 | – | 4 µg/mL (≈ 11.2 µM) | – | NC(=O)[C@H]1CN(c2cc(F)c([C@H]3CC[S@+]([O-])CC3)c(F)c2)C(=O)O1 [Example 47, (5R)-(−)-3-[3,5-Difluoro-4-(trans-tetrahydro-1-oxido-2H-thiopyran-4-yl)phenyl]-2-oxo-5-oxazolidinecarboxamide]
15 | – | 2 µg/mL (≈ 6.26 µM) | – | NC(=O)[C@H]1CN(c2ccc(N3C=CC(=O)CC3)c(F)c2)C(=O)O1 [Example 69, (5R)-3-[4-(4-Oxo-3,4-dihydro-1(2H)-pyridinyl)-3-fluorophenyl]-2-oxo-5-oxazolidinecarboxamide]
16 | – | 4 µg/mL (≈ 11.9 µM) | – | NC(=O)[C@H]1CN(c2cc(F)c(N3C=CC(=O)CC3)c(F)c2)C(=O)O1 [Example 76, (5R)-3-[4-(4-Oxo-3,4-dihydro-1(2H)-pyridinyl)-3,5-difluorophenyl]-2-oxo-5-oxazolidinecarboxamide]
17 | – | 4 µg/mL (≈ 12.4 µM) | – | CC(C)n1c(=O)oc2cc(N3C[C@H](C(N)=O)OC3=O)cc(F)c21 [Example 88, (5R)-3-(4-Fluoro-3-isopropyl-2-oxo-2,3-dihydro-6-benzoxazolyl)-2-oxo-5-oxazolidinecarboxamide]
18 | – | 2 µg/mL (≈ 6.91 µM) | – | CN1C(=O)CCc2cc(N3C[C@H](C(N)=O)OC3=O)ccc21 [Example 67, (5R)-3-(1-Methyl-2-oxo-1,2,3,4-tetrahydroquinolin-6-yl)-2-oxo-5-oxazolidinecarboxamide]

Further lines, the compound ahead of its results:

Row | Compound | melting point | MIC ([1]; read-out: MIC) | MIC [1]
19 | NC(=O)[C@H]1CN(c2ccc(C3CCOCC3)c(F)c2)C(=O)O1 [Example 10, (5R)-(−)-3-[4-(Tetrahydro-2H-pyran-4-yl)-3-fluorophenyl]-2-oxo-5-oxazolidinecarboxamide] | 153 to 156 °C | 4 µg/mL (≈ 13 µM) | –
20 | NC(=O)[C@H]1CN(c2ccc(N3CC[S+]([O-])CC3)c(F)c2)C(=O)O1 [Example 21, (5R)-(−)-3-[3-Fluoro-4-(thiomorpholin-4-yl)phenyl]-2-oxo-5-oxazolidinecarboxamide S-oxide] | 264 to 266 °C (dec.) | 8 µg/mL (≈ 23.4 µM) | –
21 | Cn1c(=O)sc2cc(N3C[C@H](C(N)=O)OC3=O)ccc21 [Example 29, (5R)-(−)-3-(2,3-Dihydro-3-methyl-2-oxo-6-benzothiazolyl)-2-oxo-5-oxazolidinecarboxamide] | 274 to 276 °C (dec.) | 1 µg/mL (≈ 3.41 µM) | –
22 | NC(=O)[C@H]1CN(c2ccc(-c3cccnc3)c(F)c2)C(=O)O1 [Example 7, (5R)-(−)-3-[4-(3-Pyridyl)-3-fluorophenyl]-2-oxo-5-oxazolidinecarboxamide] | 240 to 242 °C (dec.) | 2 µg/mL (≈ 6.64 µM) | –
23 | NC(=O)[C@H]1CN(c2ccc(N3CCN(C(=O)CO)CC3)c(F)c2)C(=O)O1 [Example 14, (5R)-(−)-3-[3-Fluoro-4-[4-(hydroxyacetyl)-1-piperazinyl]phenyl]-2-oxo-5-oxazolidinecarboxamide] | 232 to 235 °C (dec.) | 4 µg/mL (≈ 10.9 µM) | –
24 | NC(=O)[C@H]1CN(c2ccc(C3CCS(=O)(=O)CC3)c(F)c2)C(=O)O1 [Example 28, (5R)-3-[4-(Tetrahydro-2H-thiopyran-4-yl)-3-fluorophenyl]-2-oxo-5-oxazolidinecarboxamide S,S-dioxide] | 231 to 234 °C (dec.) | – | –
25 | NC(=O)[C@H]1CN(c2ccc(C3=CC[S+]([O-])CC3)c(F)c2)C(=O)O1 (stereo partly drawn) [Example 11, (5R)-3-[4-(3,6-Dihydro-2H-thiopyran-4-yl)-3-fluorophenyl]-2-oxo-5-oxazolidinecarboxamide S-oxide] | 182 to 184 °C (dec.) | 4 µg/mL (≈ 11.8 µM) | –
26 | NC(=O)[C@H]1CN(c2ccc(C3CCS(=O)(=O)CC3)cc2)C(=O)O1 [Example 25, (5R)-(−)-3-[4-(tetrahydro-2H-thiopyran-4-yl)phenyl]-2-oxo-5-oxazolidinecarboxamide S,S-dioxide] | 211 to 212 °C | 8 µg/mL (≈ 23.6 µM) | –
27 | NC(=O)[C@H]1CN(c2ccc([C@H]3CC[S@@+]([O-])CC3)cc2)C(=O)O1 [Example 26, (5R)-3-[4-(cis-tetrahydro-1-oxido-2H-thiopyran-4-yl)phenyl]-2-oxo-5-oxazolidinecarboxamide] | 269 to 273 °C (dec.) | 16 µg/mL (≈ 49.6 µM) | –
28 | O=C(NO)[C@H]1CN(c2ccc(N3CCOCC3)c(F)c2)C(=O)O1 [Example 6, (5R)-(−)-3-[3-Fluoro-4-(4-morpholinyl)phenyl]-N-hydroxy-2-oxo-5-oxazolidinecarboxamide] | 141 to 143 °C | 16 µg/mL (≈ 49.2 µM) | –
29 | NC(=O)[C@H]1CN(c2ccc(C3CCS(=O)(=O)CC3)c(F)c2)C(=O)O1 [Example 13, (5R)-(−)-3-[4-(Tetrahydro-2H-thiopyran-4-yl)-3-fluorophenyl]-2-oxo-5-oxazolidinecarboxamide S,S-dioxide] | 229 to 231 °C (dec.) | 2 µg/mL (≈ 5.61 µM) | –
30 | CCCNC(=O)[C@H]1CN(c2ccc(N3CCOCC3)c(F)c2)C(=O)O1 [Example 4, (5R)-(−)-3-[3-Fluoro-4-(4-morpholinyl)phenyl]-N-propyl-2-oxo-5-oxazolidinecarboxamide] | 165 to 167 °C | 16 µg/mL (≈ 45.5 µM) | –
